Reference: PMC10308769, “First reported double drug–drug interaction in a cancer renal patient under everolimus treatment: therapeutic drug monitoring and review of literature” (European Journal of Medical Research, 2023)
“Also recorded” adds a separate entry of the source. Like-named read-outs stand apart in the source and are kept apart here.

Legend:
[1] = tested on: renal cell carcinoma (RCC); assay: Clinical course of the case patient: toxicities, response, PFS; assay type: in vivo
Description: A person with smoking and epilepsy history was diagnosed from a stage pT3a renal carcinoma in December 2015. Radical right nephrectomy was performed in February 2016. In September 2018, a right lung segmentectomy was practiced due to lepidic adenocarcinoma growth. On February 2021 progression was detected with right adrenal massive bleeding, hilar adenopathy and left renal adrenal metastasis. Nivolumab was initiated as first-line treatment in May 2021 for intermediate-risk clear-cell RCC. […] In December 2021, new progression was detected and second-line treatment with cabozantinib 60 mg daily was started.
(§1) This finding was discussed within the multidisciplinary team, including the oncologist and the pharmacist, and a TDM plan was planned. Method used for analysis was ultra-high-performance liquid chromatography coupled to tandem mass spectrometry.
Everolimus dose was increased from 10 mg QD to 15 mg daily (administered 10 mg, 1 h before breakfast and 5 mg, 1 h before dinner). […] However, a second dose adjustment was needed, 10 mg BID, administered before meals. Two weeks and a month later, new TDM were planned and Cminss were 10.6 ng/ml and 8.7 ng/ml, respectively (Fig. 2). […] Unfortunately, everolimus treatment was stopped on July 2022, due to lung progression, pleural effusion, and respiratory insufficiency, and finally patient died.

CYP3A4 = tested on: CYP3A4; design: method as in lexicomp and drugs databases; conditions: ref lexicomp and drugs databases; cited from earlier work
[2] = design: method as in PMID 24332451; conditions: cited from earlier work
[3] = design: method as in PMID 15785960; conditions: single 2-mg dose everolimus with erythromycin 500 mg TID for 9 days; cited from earlier work
renal cancer [4] = tested on: renal cancer; design: method as in PMID 22209391; conditions: cited from earlier work
[5] = design: method as in PMID 28762135; conditions: 10 patients, cited from earlier work
[6] = design: method as in PMID 16187976; conditions: single 2 mg dose everolimus with verapamil 80 mg three times daily, 16 healthy subjects; cited from earlier work
breast cancer = tested on: breast cancer; design: method as in PMID 36188563; conditions: cited from earlier work
[7] = Therapeutic drug monitoring of everolimus in the case patient (UHPLC-MS/MS); assay type: in vivo; conditions: human, plasma, oral, co-medication carbamazepine and phenytoin, read-out: Cminss
Source text: as §1

[8] = design: method as in product label; conditions: ref product label, cited from earlier work
renal cancer [9] = tested on: renal cancer; design: method as in PMID 27279544; conditions: renal cancer patients, second or third-line therapy; cited from earlier work
[10] = design: method as in PMID 25361989; conditions: cited from earlier work
[11] = design: method as in earlier work; conditions: single oral 10 mg dose, cited from earlier work

COc1cc2nccc(Oc3ccc(NC(=O)C4(C(=O)Nc5ccc(F)cc5)CC4)cc3)c2cc1OC [cabozantinib]
adverse events ([1]; cabozantinib 60 mg daily second-line treatment, case patient): hypertension grade I; also recorded: nausea and diarrhea grade I

NC(=O)N1c2ccccc2C=Cc2ccccc21 [carbamazepine]
classification of effect on CYP3A4 metabolism (CYP3A4): strong inducers

CO[C@H]1C[C@@H]2CC[C@@H](C)[C@@](O)(O2)C(=O)C(=O)N2CCCC[C@H]2C(=O)O[C@H]([C@H](C)C[C@@H]2CC[C@@H](OCCO)[C@H](OC)C2)CC(=O)[C@H](C)/C=C(\C)[C@@H](O)[C@@H](OC)C(=O)[C@H](C)C[C@H](C)/C=C/C=C/C=C/1C [everolimus]
mean Cminss ([2]; 945 patients, lung, renal and neuroendocrine tumors): 15.65 ng/mL
patients achieving optimal plasmatic concentrations (10-30 ng/ml) ([2]; lung cancer): 55.2%
patients achieving optimal plasmatic concentrations (10-30 ng/ml) ([2]; neuroendocrine tumors): 45%
patients achieving optimal plasmatic concentrations (10-30 ng/ml) ([2]; renal cancer): 62.9%
decrease of Cminss ([2]; with CYP3A4 inducers): 7%
increase of Cminss ([2]; with strong CYP3A4 inhibitors): 10%
increase of AUC [3]: 4.4 fold
increase of Cmax [3]: 2.0 fold
median PFS (renal cancer [4]; renal cancer patients, comparison group before the drop (earlier line)): 5.4 months
median PFS (renal cancer [4]; third line, previously treated with two anti-VEGFR tyrosine kinase inhibitor): 4 months
AUC ([5]; 5 mg twice daily): 436 ng·h/mL
maximum concentration (Cmax) ([5]; 5 mg twice daily): 40.3 ng/mL
minimum steady-state concentration (Cminss) ([5]; 5 mg twice daily): 13.7 ng/mL
AUC ([5]; 10 mg once daily): 435 ng·h/mL
maximum concentration (Cmax) ([5]; 10 mg once daily): 61.5 ng/mL
minimum steady-state concentration (Cminss) ([5]; 10 mg once daily): 9.6 ng/mL
increase of AUC [6]: 3.5 fold
increase of Cmax [6]: 2.3 fold
PFS ([1]; case patient, everolimus third line RCC): 3.7 months
toxicities ([1]; during everolimus treatment): no relevant toxicities were observed
response to treatment ([1]; during everolimus treatment, third line RCC): stable disease; also recorded: stabilization disease
toxicities ([1]; everolimus 10 mg QD, four weeks after starting treatment): no toxicities
toxicities ([1]; everolimus 15 mg daily, four weeks later): without relevant toxicities
median PFS (breast cancer; breast cancer patients): 13.7 months
median Cminss in patients with dose-limiting toxicities (breast cancer): 19 ng/mL
patients with Cminss below 10 ng/ml (breast cancer): 50%
concentration at 1 month ([7]; 10 mg BID, everolimus 10 mg BID, a month later): 8.7 ng/mL
concentration at 2 weeks ([7]; 10 mg BID, everolimus 10 mg BID, two weeks later): 10.6 ng/mL
concentration at 4 weeks ([7]; 10 mg QD, everolimus 10 mg QD fasted, four weeks after starting treatment): 3.7 ng/mL
concentration at 4 weeks ([7]; 15 mg daily (10 mg + 5 mg), everolimus 15 mg daily (10 mg + 5 mg), four weeks later): 6.4 ng/mL
time to peak concentration ([8]; oral): 1.3 to 1.8 h
time to steady state [8]: 7 to 14 days
median PFS (renal cancer [9]): 3.8 months
plasma concentration ([10]; before fenofibrate): 10.1 ng/mL
plasma concentration ([10]; with fenofibrate): 4.2 ng/mL
reduction of AUC ([11]; high-fat meal vs fasting): 33%
reduction of Cmax ([11]; high-fat meal vs fasting): 54%
reduction of AUC ([11]; low-fat meal vs fasting): 22%
reduction of Cmax ([11]; low-fat meal vs fasting): 42%

O=C1NC(=O)C(c2ccccc2)(c2ccccc2)N1 [phenytoin]
classification of effect on CYP3A4 metabolism (CYP3A4): strong inducers

Nivolumab
adverse events ([1]; nivolumab first-line treatment, case patient): dry mouth, grade II anorexia and grade I astheny; also recorded: no immune-mediated toxicities
